The source of these data is patent US9096591B2, “Tetracyclic compounds” (Medivation Technologies, Inc., priority 2007, dated 2015).

Test [1] has as its target T1, human recombinant histamine H1 receptor (Homo sapiens, UniProt P35367).
T1 construct: expressed in transfected cells; host or cells: CHO cells
Put plainly: Histamine H1 radioligand binding ([3H]Pyrilamine). Summed up: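 CHO-expressed receptor in modified Tris-HCl buffer (50 mM, pH 7.4; 2 mM MgCl2, 100 mM NaCl, 250 mM sucrose); bound ligand measured after filtration and washing.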

Test [2] addresses T2, human recombinant adrenergic α1D receptor (Homo sapiens, UniProt P25100).
T2 construct: expressed in transfected cells; host or cells: HEK-293 cells
T2 sequence (P25100 1-572): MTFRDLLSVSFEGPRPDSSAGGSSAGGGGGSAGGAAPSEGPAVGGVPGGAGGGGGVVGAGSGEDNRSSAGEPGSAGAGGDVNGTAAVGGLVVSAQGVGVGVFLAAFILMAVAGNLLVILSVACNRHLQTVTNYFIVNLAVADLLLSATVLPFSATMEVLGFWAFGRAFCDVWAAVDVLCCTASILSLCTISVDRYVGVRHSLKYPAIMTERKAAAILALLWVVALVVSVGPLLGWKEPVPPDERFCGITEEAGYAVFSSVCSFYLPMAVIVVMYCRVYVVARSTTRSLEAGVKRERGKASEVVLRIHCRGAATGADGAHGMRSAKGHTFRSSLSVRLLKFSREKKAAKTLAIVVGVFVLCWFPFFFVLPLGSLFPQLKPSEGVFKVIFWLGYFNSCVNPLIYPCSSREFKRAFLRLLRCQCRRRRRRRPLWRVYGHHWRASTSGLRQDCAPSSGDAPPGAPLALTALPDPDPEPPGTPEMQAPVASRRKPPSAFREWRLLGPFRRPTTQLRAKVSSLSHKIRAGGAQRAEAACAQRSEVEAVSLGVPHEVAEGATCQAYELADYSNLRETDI
Kind of test: Adrenergic α1D radioligand binding ([3H]Prozosin). Details: Inhibition of ligand binding, Adren. alpha1D: concentration or dose not given beside the values. Particulars: for Inhibition of ligand binding, Adren. alpha1D: percent inhibition of specific binding; for inhibition at 1 µM: compounds screened at 1 μM, read-out: Inhibition of ligand binding, Adren. alpha1D (percent inhibition of specific binding). The protocol: Compounds of invention were incubated with 0.6 nM [^3H]Prozosin for 60 minutes at 25° C. Non-specific binding was estimated in the presence of 10 μM phentolamine. Receptor proteins were filtered and washed, the filters were then counted to determine [^3H]Prozosin specifically bound. […] Biochemical assay results are presented as the percent inhibition of specific binding in Table 6.

Test [3] addresses T3, human recombinant adrenergic α2B receptor (Homo sapiens, UniProt P18089).
T3 construct: expressed in transfected cells; host or cells: CHO-K1 cells
T3 sequence (P18089 1-450): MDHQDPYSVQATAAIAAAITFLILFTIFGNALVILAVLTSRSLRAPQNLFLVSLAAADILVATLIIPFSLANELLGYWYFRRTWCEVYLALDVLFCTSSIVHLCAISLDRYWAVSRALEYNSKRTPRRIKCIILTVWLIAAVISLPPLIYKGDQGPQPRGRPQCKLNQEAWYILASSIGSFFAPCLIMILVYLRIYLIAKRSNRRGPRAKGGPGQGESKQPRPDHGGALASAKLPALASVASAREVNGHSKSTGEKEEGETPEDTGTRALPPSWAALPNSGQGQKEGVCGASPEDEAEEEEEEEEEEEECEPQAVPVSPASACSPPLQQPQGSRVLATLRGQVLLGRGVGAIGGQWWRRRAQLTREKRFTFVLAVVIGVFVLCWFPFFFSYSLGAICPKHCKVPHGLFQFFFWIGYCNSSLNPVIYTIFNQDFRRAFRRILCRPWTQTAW
Put plainly: Adrenergic α2B radioligand binding ([3H]Rauwolscine). Details: Inhibition of ligand binding, Adren. alpha2B: concentration or dose not given beside the values. The following applies: for Inhibition of ligand binding, Adren. alpha2B: percent inhibition of specific binding; for inhibition at 1 µM: compounds screened at 1 μM, read-out: Inhibition of ligand binding, Adren. alpha2B (percent inhibition of specific binding). Summed up: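 Incubation ran 60 minutes at 25 °C in modified Tris-HCl buffer (50 mM, pH 7.4, 12.5 mM MgCl2, 1 mM EDTA, 0.2% BSA) using CHO-K1-expressed human receptor.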

Setting [4] is: percent inhibition of specific binding, screened at 1 μM, read-out: Inhibition of ligand binding, Hist. H1.
[5] abbreviates: compounds screened at 1 μM, read-out: Inhibition of ligand binding, Hist. H1 (percent inhibition of specific binding).

Read-outs that look alike come from different tables or passages of the source.

T1 sequence (P35367 whole entry): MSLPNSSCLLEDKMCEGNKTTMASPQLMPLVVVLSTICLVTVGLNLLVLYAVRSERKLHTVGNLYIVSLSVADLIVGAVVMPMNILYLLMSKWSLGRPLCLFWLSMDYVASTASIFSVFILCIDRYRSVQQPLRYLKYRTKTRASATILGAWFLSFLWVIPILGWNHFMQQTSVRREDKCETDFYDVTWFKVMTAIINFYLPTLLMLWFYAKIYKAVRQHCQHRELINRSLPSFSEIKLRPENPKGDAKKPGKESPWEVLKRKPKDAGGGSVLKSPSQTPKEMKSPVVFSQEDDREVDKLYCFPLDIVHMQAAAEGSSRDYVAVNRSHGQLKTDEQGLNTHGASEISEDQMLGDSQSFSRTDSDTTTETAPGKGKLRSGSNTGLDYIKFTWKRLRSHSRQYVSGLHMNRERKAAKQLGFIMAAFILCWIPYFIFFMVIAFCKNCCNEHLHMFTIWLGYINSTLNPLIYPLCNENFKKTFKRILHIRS

For orientation: inhibition means the relative decrease from the control value, in per cent. Consider `CN1CCc2c(c3cc(Cl)ccc3n2CC(=O)N2CC[S+]([O-])CC2)C1` [Compound 296, 2-(8-Chloro-2-methyl-1,2,3,4-tetrahydro-pyrido[4,3-b]indol-5-yl)-1-(1-oxo-1l4-thiomorpholin-4-yl)-ethanone], for which, in test [1] (setting [4]), the inhibition at 1 µM stood at 36%. In addition, in test [2], the “Inhibition of ligand binding, Adren. alpha1D” value (“Inhibition … Adren. alpha1D” below) is recorded as 3%. The “Inhibition of ligand binding, Adren. alpha2B” value (“Inhibition … Adren. alpha2B” for short) in test [3] is reported as −8%.
In the same order, the values of `CC(=O)N1CCN(C(=O)Cn2c3c(c4cc(Cl)ccc42)CN(C)CC3)CC1` [Compound 297, 1-(4-Acetyl-piperazin-1-yl)-2-(8-chloro-2-methyl-1,2,3,4-tetrahydro-pyrido[4,3-b]indol-5-yl)-ethanone] are 43%, 15% and 7%.
Turning to `CC1CCCCN1C(=O)Cn1c2c(c3cc(Cl)ccc31)CN(C)CC2` (stereo not drawn) [Compound 321, 2-(8-chloro-1,2,3,4-tetrahydro-2-methylpyrido[4,3-b]indol-5-yl)-1-(2-methylpiperidin-1-yl)ethanone], the inhibition at 1 µM in test [1] (setting [4]) was found to be 50%. Further, the “Inhibition … Adren. alpha1D” value in test [2] is listed as 4%. In addition, in test [3], the “Inhibition … Adren. alpha2B” value worked out at 25%.
Regarding `Cc1ccc2c(c1)c1c(n2CCc2cnc(C)cn2)CCN(C)C1` [Compound 322, 2,8-dimethyl-5-(2-(5-methylpyrazin-2-yl)ethyl)-2,3,4,5-tetrahydro-1H-pyrido[4,3-b]indole], in test [1] (setting [4]), the inhibition at 1 µM was determined as 89%. Besides, in test [2], the “Inhibition … Adren. alpha1D” value came out at 66%. In addition, the “Inhibition … Adren. alpha2B” value in test [3] is listed as 115%.
As to `Cc1ccc2c(c1)c1c(n2CCc2cnc(C)nc2)CCN(C)C1` [Compound 323, 2,3,4,5-tetrahydro-2,8-dimethyl-5-(2-(2-methylpyrimidin-5-yl)ethyl)-1H-pyrido[4,3-b]indole], the inhibition at 1 µM in test [1] (setting [4]) came out at 93%. Also, the “Inhibition … Adren. alpha1D” value in test [2] amounted to 49%. The “Inhibition … Adren. alpha2B” value in test [3] was determined as 62%.
On to `CN1CCc2c(c3cc(Cl)ccc3n2CCCc2ccc(C(F)(F)F)nc2)C1` [Compound 324, 8-chloro-5-(3-(6-(trifluoromethyl)pyridin-3-yl)propyl)-2,3,4,5-tetrahydro-2-methyl-1H-pyrido[4,3-b]indole], for which the inhibition at 1 µM in test [1] (setting [4]) turned out to be 101%. The “Inhibition … Adren. alpha1D” value in test [2] worked out at 53%. For the same compound, the “Inhibition … Adren. alpha2B” value in test [3] was 98%.
The corresponding values for `CC1CCN(C(=O)CCn2c3c(c4cc(Cl)ccc42)CN(C)CC3)CC1` [Compound 325, 3-(8-chloro-1,2,3,4-tetrahydro-2-methylpyrido[4,3-b]indol-5-yl)-1-(4-methylpiperidin-1-yl)propan-1-one] are 90%, 36% and 58%.
With `CN1CCc2c(c3cc(Cl)ccc3n2CCC(=O)N2CCCCC2)C1` [Compound 326, 3-(8-chloro-1,2,3,4-tetrahydro-2-methylpyrido[4,3-b]indol-5-yl)-1-(piperidin-1-yl)propan-1-one], the inhibition at 1 µM in test [1] (setting [4]) was 47%. Also, the “Inhibition … Adren. alpha1D” value in test [2] came out at 40%. Further, the “Inhibition … Adren. alpha2B” value in test [3] amounted to 52%.
The corresponding values for `CN1CCc2c(c3cc(Cl)ccc3n2CCC(=O)N2CCOCC2)C1` [Compound 328, 3-(8-chloro-1,2,3,4-tetrahydro-2-methylpyrido[4,3-b]indol-5-yl)-1-morpholinopropan-1-one] are 56%, 23% and 21%.
The corresponding values for `CN1CCc2c(c3ccccc3n2CCc2ccccn2)C1` [Compound 329, 2,3,4,5-tetrahydro-2-methyl-5-(2-(pyridin-2-yl)ethyl)-1H-pyrido[4,3-b]indole] are 18%, 4% and 68%.
In the case of `Cc1ccc2c(c1)c1c(n2CC(=O)N2CCOCC2)CCN(C)C1` [Compound 330, 2-(1,2,3,4-tetrahydro-2,8-dimethylpyrido[4,3-b]indol-5-yl)-1-morpholinoethanone], the inhibition at 1 µM in test [1] (setting [4]) came to 8%. Further, the “Inhibition … Adren. alpha1D” value in test [2] came to 8%. Further, the “Inhibition … Adren. alpha2B” value in test [3] came to 6%.
Take `Cc1ccc2c(c1)c1c(n2CCCc2ccc(C(F)(F)F)nc2)CCN(C)C1` [Compound 331, 5-(3-(6-(trifluoromethyl)pyridin-3-yl)propyl)-2,3,4,5-tetrahydro-2,8-dimethyl-1H-pyrido[4,3-b]indole]: in test [1] (setting [4]), the inhibition at 1 µM amounted to 102%. Further, in test [2], the “Inhibition … Adren. alpha1D” value is listed as 63%. Besides, the “Inhibition … Adren. alpha2B” value in test [3] came to 105%.
With `CCOc1ccc(CCn2c3c(c4cc(C)ccc42)CN(C)CC3)cc1` [Compound 334, 5-[2-(4-Ethoxy-phenyl)-ethyl]-2,8-dimethyl-2,3,4,5-tetrahydro-1H-pyrido[4,3-b]indole], the inhibition at 1 µM in test [1] (setting [4]) amounted to 99%. For the same compound, the “Inhibition … Adren. alpha1D” value in test [2] was 110%. The “Inhibition … Adren. alpha2B” value in test [3] came to 111%.
The corresponding values for `Cc1ccc2c(c1)c1c(n2CCc2ccc(OC(C)(C)C)cc2)CCN(C)C1` [Compound 335, 5-(4-tert-butoxyphenethyl)-2,3,4,5-tetrahydro-2,8-dimethyl-1H-pyrido[4,3-b]indole] are 96%, 91% and 104%.
For `COc1ccc(CCn2c3c(c4cc(Cl)ccc42)CN(C)CC3)cc1` [Compound 336, 8-Chloro-5-[2-(4-methoxy-phenyl)-ethyl]-2-methyl-2,3,4,5-tetrahydro-1H pyrido[4,3-b]indole], the inhibition at 1 µM in test [1] (setting [4]) came to 107%. The “Inhibition … Adren. alpha1D” value in test [2] was found to be 98%. Further, the “Inhibition … Adren. alpha2B” value in test [3] is listed as 103%.
`COc1ccc(CCn2c3c(c4cc(Cl)ccc42)CN(C)CC3)cc1F` [Compound 337, 5-(3-fluoro-4-methoxyphenethyl)-8-chloro-2,3,4,5-tetrahydro-2-methyl-1H-pyrido[4,3-b]indole]: in test [1] (setting [4]), the inhibition at 1 µM came out at 99%. Further, the “Inhibition … Adren. alpha1D” value in test [2] was found to be 97%. Also, the “Inhibition … Adren. alpha2B” value in test [3] was 117%.
With `CN1CCc2c(c3ccncc3n2CCc2ccccn2)C1` [Compound 481, 7-aza-2-methyl-5-(2-(pyridin-2-yl)ethyl)-2,3,4,5-tetrahydro-1H-pyrido[4,3-b]indole], the inhibition at 1 µM worked out at 4% in test [1] (setting [5]), 3% in test [2] and 19% in test [3].
For the compound `CN1CCc2c(c3ncccc3n2CCc2ccncc2)C1` [Compound 482, 9-aza-2-methyl-5-(2-(pyridin-4-yl)ethyl)-2,3,4,5-tetrahydro-1H-pyrido[4,3-b]indole], the inhibition at 1 µM in test [1] (setting [5]) was -2%; in test [2], 2%; in test [3] it was 10%.
On to `CN1CCc2c(c3ccncc3n2CCc2ccncc2)C1` [Compound 483, 7-aza-2-methyl-5-(2-(pyridin-4-yl)ethyl)-2,3,4,5-tetrahydro-1H-pyrido[4,3-b]indole], for which the inhibition at 1 µM in test [1] (setting [5]) is -5%; in test [2], 3%; in test [3], 12%.
